± gives the standard deviation of the reports.
SMILES	glass transition temperature [°C]
*/C(=C(/*)c1ccc([Si](C)(C)C)cc1)c1ccccc1 (repeat unit)	200.00
*CC(*)(C)C(=O)OCCN(CC)c1ccc(/N=N/c2ccc(C#N)cc2)cc1 (repeat unit)	119.00
*Oc1ccc(CC(NC(=O)CCc2ccc(OC(=O)COCC(*)=O)cc2)C(=O)OC(C)CC)cc1 (repeat unit)	68.00
*Oc1ccc(C(C)(C)c2ccc(OC(=O)SCCCSC(*)=O)cc2)cc1 (repeat unit)	90.00
*CC(*)(C)C(=O)OCCCCCCC(F)(F)C(F)(F)C(F)(F)C(F)(F)F (repeat unit)	23.00
*C(=O)OCCN(CCOC(=O)c1ccc2c(c1)C(=O)N(c1cccc(N3C(=O)c4ccc(*)cc4C3=O)c1)C2=O)c1ccc(/N=N/c2ccc(F)cc2)cc1 (repeat unit)	168.00
*CC(*)c1cc(Br)ccc1OCCC(C)C (repeat unit)	37.00
*CC(*)(F)C(C)=O (repeat unit)	142.00
*CCCCCCOC(=O)c1cc(OCCCCCCOc2ccc(/N=N/c3ccc(C#N)cc3)cc2)cc(C(=O)OCCCCCCN2C(=O)c3ccc(Oc4ccc5c(c4)C(=O)N(*)C5=O)cc3C2=O)c1 (repeat unit)	61.00
*CC(*)(C)C(=O)OCC(F)(F)C(F)(F)F (repeat unit)	77.00
*c1ccc(Oc2ccc(-c3ccc(Oc4ccc(N5C(=O)c6ccc(Oc7ccc8ccc(Oc9ccc%10c(c9)C(=O)N(*)C%10=O)cc8c7)cc6C5=O)cc4)cc3)cc2)cc1 (repeat unit)	231.00
*c1ccc(Oc2ccc(C(=O)c3ccc(Oc4ccc(C(=O)c5ccc(Oc6ccc(-c7nc(-c8ccccc8)[nH]c7*)cc6)cc5)cc4)cc3)cc2)cc1 (repeat unit)	230.00
*O[Si](C)(C)CC[Si](C)(C)Oc1c(C)cc(-c2cc(C)c(*)c(C)c2)cc1C (repeat unit)	55.00
*CC(*)OC(=O)c1ccc(Br)cc1 (repeat unit)	85.50
*c1ccc(/C=C(\c2ccc(OC)cc2)c2ccc(/C(=C/c3ccc(N(*)c4ccccc4)cc3)c3ccc(OC)cc3)cc2)cc1 (repeat unit)	197.00
*c1ccc2c(c1)C(=O)N(c1ccc(Oc3c(C)cc(Cc4cc(C)c(Oc5ccc(N6C(=O)c7ccc(C(*)(C(F)(F)F)C(F)(F)F)cc7C6=O)cc5)c(C)c4)cc3C)cc1)C2=O (repeat unit)	298.00
*CC(F)(F)C(F)(F)C(F)(F)C(F)(F)COC(=O)O* (repeat unit)	-41.00
*CCCCCCCCC(*)Cl (repeat unit)	-33.00
*CCCC(C)(C)CCCNC(=O)c1ccc(C(=O)N*)cc1 (repeat unit)	152.00
*CC(*)(C)C(=O)OCCCCCOc1ccc(OC(=O)c2ccc(OC)cc2)cc1 (repeat unit)	38.00
*CC(*)(CC(=O)OCCCCCC)C(=O)OCCCCCC (repeat unit)	-7.00
*CC(*)(CC(=O)OC1CCC1)C(=O)OC1CCC1 (repeat unit)	60.00
*c1ccc2c(c1)C(=O)N(c1cccc(P(=O)(c3cccc(N4C(=O)c5ccc(C(*)(C(F)(F)F)C(F)(F)F)cc5C4=O)c3)c3cc(C(F)(F)F)cc(C(F)(F)F)c3)c1)C2=O (repeat unit)	247.00

The next lines start with the values.

glass transition temperature [°C]	SMILES
92.00	*Oc1cc(OCCOC)c(OC(=O)c2ccc(C(*)=O)cc2-c2ccccc2)cc1OCCOC (repeat unit)
248.8 ± 18	*C(=O)c1ccc2c(c1)C(=O)N(c1ccc(Oc3ccc(C(c4ccc(Oc5ccc(N6C(=O)c7ccc(*)cc7C6=O)cc5)cc4)(C(F)(F)F)C(F)(F)F)cc3)cc1)C2=O (repeat unit)
301.00	*C(=O)Nc1ccc(-c2ccc(NC(=O)c3ccc4c(c3)C(=O)N(c3ccc(Oc5cccc6c(N7C(=O)c8ccc(*)cc8C7=O)cccc56)cc3)C4=O)cc2)cc1 (repeat unit)
246.00 ± 4.7	*c1cccc(S(=O)(=O)c2cccc(N3C(=O)c4ccc(Oc5ccc6c(c5)C(=O)N(*)C6=O)cc4C3=O)c2)c1 (repeat unit)
290.00 ± 28	*C(=O)c1ccc2c(c1)C(=O)N(c1ccc(Oc3ccc(N4C(=O)c5ccc(*)cc5C4=O)cc3)cc1)C2=O (repeat unit)
157.00	*c1ccc2c(c1)C(=O)N(c1cccc(C(F)(F)C(F)(F)C(F)(F)c3cccc(N4C(=O)c5ccc(C(F)(F)C(F)(F)C(*)(F)F)cc5C4=O)c3)c1)C2=O (repeat unit)
200.00	*OC(=O)Nc1ccc(Cc2ccc(NC(=O)OC3CC4CC(*)CC(C3)O4)cc2)cc1 (repeat unit)
304.00	*C(=O)Nc1ccc(-c2ccc(NC(=O)c3ccc4c(c3)C(=O)N(c3ccc(Oc5cccc6c(N7C(=O)c8ccc(*)cc8C7=O)cccc56)cc3)C4=O)c(OC)c2)cc1OC (repeat unit)
395.00	*c1ccc(-c2cc(-c3ccccc3)c3cc(-c4ccc5nc(*)cc(-c6ccccc6)c5c4)ccc3n2)cc1 (repeat unit)
248.00	*c1ccc(Oc2ccc(C(=O)c3ccc(C(=O)c4ccc(Oc5ccc(-c6nc(-c7ccccc7)[nH]c6*)cc5)cc4)cc3)cc2)cc1 (repeat unit)
240.00	*Cc1cc2cc(C(=O)Nc3cccc(NC(=O)c4cc5cc(*)c(OC(=O)COc6ccc7ccc(=O)oc7c6)cc5oc4=O)c3)c(=O)oc2cc1OC(=O)COc1ccc2ccc(=O)oc2c1 (repeat unit)
289.00	*c1ccc2c(c1)C(=O)N(c1cc(C(=O)Oc3ccc(C(c4ccc(OC(=O)c5ccc(C)c(N6C(=O)c7ccc(C(*)(C(F)(F)F)C(F)(F)F)cc7C6=O)c5)cc4)(C(F)(F)F)C(F)(F)F)cc3)ccc1C)C2=O (repeat unit)
220.00	*Oc1ccc(NC(=C(C#N)C#N)c2ccc(-c3ccc(C(Nc4ccc(*)cc4)=C(C#N)C#N)cc3)cc2)cc1 (repeat unit)
184.00	*Nc1cc(NC(=O)Nc2ccc(NC(*)=O)cc2)cc(C(=O)Nc2ccc3c(c2)C(=O)c2ccccc2C3=O)c1 (repeat unit)
250.00	*c1ccc(Cc2ccc(NC(=O)c3ccc(Oc4ccc5c(c4)C(=O)N(*)C5=O)cc3)cc2)cc1 (repeat unit)
214.00	*CN1C(=O)c2ccc(C(c3ccc4c(c3)C(=O)N(Cc3nnc(-c5ccc(-c6nnc(*)o6)cc5)o3)C4=O)(C(F)(F)F)C(F)(F)F)cc2C1=O (repeat unit)
230.00	*Oc1ccc(C(C)(C)c2ccc(OC(=O)c3ccc(C(C)(C)c4ccc(C(*)=O)cc4)cc3)cc2)cc1 (repeat unit)
129.00	*Cc1ccc(C(C)(C)c2ccc(CN3C(=O)c4ccc(-c5ccc6c(c5)C(=O)N(*)C6=O)cc4C3=O)o2)o1 (repeat unit)
38.00	*Oc1cc(OC(=O)c2ccc(OCCCC)cc2)c(OC(=O)CCCCCCCC(*)=O)cc1OC(=O)c1ccc(OCCCC)cc1 (repeat unit)
228.00	*Oc1ccc(Oc2ccc(NC(=C(C#N)C#N)c3cccc(C(Nc4ccc(*)cc4)=C(C#N)C#N)c3)cc2)cc1 (repeat unit)

— the PolyMetriX glass transition set
